# Like-named read-outs stand apart in the source and are kept apart here.
# Key:
# Burkholderia cenocepacia = assay: MIC/MBC against CF isolates (CLSI, alamar blue); settings: Burkholderia cenocepacia
# Escherichia coli = assay: MIC/MBC of nanoemulsions against gram-negative isolates (CLSI, alamar blue); format: cell-based; settings: Escherichia coli (n = 5)
# Acinetobacter baumannii = assay: MIC/MBC against clinical isolates (CLSI, alamar blue); settings: Acinetobacter baumannii
# Klebsiella pneumoniae = assay: MIC/MBC of nanoemulsions against gram-negative isolates (CLSI, alamar blue); format: cell-based; settings: Klebsiella pneumoniae (n = 5)
# Pseudomonas aeruginosa = assay: as above; format: cell-based; settings: Pseudomonas aeruginosa (n = 5)
# [1] = test system: Stenotrophomonas maltophilia; assay: MIC/MBC against CF isolates (CLSI, alamar blue); settings: Stenotrophomonas maltophilia
# Proteus mirabilis = assay: MIC/MBC of nanoemulsions against gram-negative isolates (CLSI, alamar blue); format: cell-based; settings: Proteus mirabilis (n = 5)
# Burkholderia cepacia = assay: as above; format: cell-based; settings: Burkholderia cepacia (n = 5)
# [2] = nanoemulsions in the presence of 5 mM EDTA
# [3] = nanoemulsions in the presence of 5 mM EDTA, in µg/mL
# [4] = CF Stenotrophomonas isolate NB41
# [5] = CF Stenotrophomonas isolate NB42
# [6] = CF Stenotrophomonas isolate NB43
# [7] = CF Stenotrophomonas isolate NB44
# [8] = CF Stenotrophomonas isolate NB45
# [9] = CF Stenotrophomonas isolate Steno 1
# [10] = CF Stenotrophomonas isolate Steno 2
# [11] = CF Stenotrophomonas isolate Steno 3
# [12] = CF Stenotrophomonas isolate Steno 4
# [13] = CF Stenotrophomonas isolate Steno 6
# [14] = CF Stenotrophomonas isolate Steno 8
smiles,measurement,setting,value
C[C@H]1COc2c(N3CCN(C)CC3)c(F)cc3c(=O)c(C(=O)O)cn1c23 [Levofloxacin],MIC,Burkholderia cenocepacia; CF Burkholderia isolate NB29,1 µg/mL
same,MBC,Burkholderia cenocepacia; CF Burkholderia isolate NB30,1 µg/mL
same,MIC,Burkholderia cenocepacia; CF Burkholderia isolate NB30,1 µg/mL
same,% resistant,Escherichia coli,40.0%
same,% susceptible,Escherichia coli,60.0%
same,MIC50,Escherichia coli; [2],0.03 µg/mL
same,MIC50,Acinetobacter baumannii,16 µg/mL
same,MIC90,Acinetobacter baumannii,> 16 µg/mL
same,MBC,Acinetobacter baumannii; Acinetobacter isolate NB31,16 µg/mL
same,MIC,Acinetobacter baumannii; Acinetobacter isolate NB31,16 µg/mL
same,MBC,Acinetobacter baumannii; Acinetobacter isolate NB32,8 µg/mL
same,MIC,Acinetobacter baumannii; Acinetobacter isolate NB32,8 µg/mL
same,MBC,Acinetobacter baumannii; Acinetobacter isolate NB33,8 µg/mL
same,MIC,Acinetobacter baumannii; Acinetobacter isolate NB33,8 µg/mL
same,MBC,Acinetobacter baumannii; Acinetobacter isolate NB34,16 µg/mL
same,MIC,Acinetobacter baumannii; Acinetobacter isolate NB34,16 µg/mL
same,MBC,Acinetobacter baumannii; Acinetobacter isolate NB35,> 16 µg/mL
same,MIC,Acinetobacter baumannii; Acinetobacter isolate NB35,> 16 µg/mL
same,MBC,Acinetobacter baumannii; Acinetobacter isolate NB36,1 µg/mL
same,MIC,Acinetobacter baumannii; Acinetobacter isolate NB36,1 µg/mL
same,MBC,Acinetobacter baumannii; Acinetobacter isolate NB37,16 µg/mL
same,MIC,Acinetobacter baumannii; Acinetobacter isolate NB37,16 µg/mL
same,MBC,Acinetobacter baumannii; Acinetobacter isolate NB38,> 16 µg/mL
same,MIC,Acinetobacter baumannii; Acinetobacter isolate NB38,8 µg/mL
same,MBC,Acinetobacter baumannii; Acinetobacter isolate NB39,16 µg/mL
same,MIC,Acinetobacter baumannii; Acinetobacter isolate NB39,16 µg/mL
same,MBC,Acinetobacter baumannii; Acinetobacter isolate NB40,> 16 µg/mL
same,MIC,Acinetobacter baumannii; Acinetobacter isolate NB40,> 16 µg/mL
same,MBC,"Acinetobacter baumannii; read-out: MBC 50, 10 Acinetobacter isolates",16 µg/mL
same,% resistant,Klebsiella pneumoniae,20.0%
same,% susceptible,Klebsiella pneumoniae,80.0%
same,MIC50,Klebsiella pneumoniae; [2],0.06 µg/mL
same,MIC Range,Klebsiella pneumoniae; [3],0.06-8
same,% resistant,Pseudomonas aeruginosa,0.0%
same,% susceptible,Pseudomonas aeruginosa,80.0%
same,MIC50,Pseudomonas aeruginosa; [2],1 µg/mL
same,MIC Range,Pseudomonas aeruginosa; [3],0.25-4
same,MBC,[1],16 µg/mL
same,MIC50,[1],2 µg/mL
same,MIC90,[1],8 µg/mL
same,MBC,[1]; [4],4 µg/mL
same,MIC,[1]; [4],2 µg/mL
same,MBC,[1]; [5],16 µg/mL
same,MIC,[1]; [5],8 µg/mL
same,MBC,[1]; [6],4 µg/mL
same,MIC,[1]; [6],2 µg/mL
same,MBC,[1]; [7],16 µg/mL
same,MIC,[1]; [7],8 µg/mL
same,MBC,[1]; [8],2 µg/mL
same,MIC,[1]; [8],1 µg/mL
same,MBC,[1]; [9],4 µg/mL
same,MIC,[1]; [9],1 µg/mL
same,MBC,[1]; [10],8 µg/mL
same,MIC,[1]; [10],4 µg/mL
same,MBC,[1]; [11],4 µg/mL
same,MIC,[1]; [11],1 µg/mL
same,MBC,[1]; [12],2 µg/mL
same,MIC,[1]; [12],0.5 µg/mL
same,MBC,[1]; [13],4 µg/mL
same,MIC,[1]; [13],2 µg/mL
same,MBC,[1]; [14],2 µg/mL
same,MIC,[1]; [14],2 µg/mL
same,MBC,"[1]; read-out: MBC 50, 11 CF Stenotrophomonas isolates",4 µg/mL
same,% resistant,Proteus mirabilis,0.0%
same,% susceptible,Proteus mirabilis,100.0%
same,MIC50,Proteus mirabilis; [2],0.12 µg/mL
same,MIC Range,Proteus mirabilis; [3],0.06-2
same,% resistant,Burkholderia cepacia,0.0%
same,% susceptible,Burkholderia cepacia,100.0%
same,MIC50,Burkholderia cepacia; [2],2 µg/mL
same,MIC Range,Burkholderia cepacia; [3],1-2

# From patent publication US20100092526A1, “NANOEMULSION THERAPEUTIC COMPOSITIONS AND METHODS OF USING THE SAME” (NanoBio Corporation, priority 2008, published 2010)
